According to US9681664B2, “Macrocyclic picolinamides as fungicides” (Dow Agrosciences LLC, priority 2012, dated 2017):
Read-outs that look alike come from different tables or passages of the source.

What was measured:
[1] = system: Mycosphaerella graminicola; Anamorph: Septoria tritici; experiment: Leaf blotch of wheat (SEPTTR) disease control on wheat seedlings; assay type: in vivo; settings: for pest or weed control at 100 ppm / pest or weed control at 121.5 g/ha: Zymoseptoria tritici; for pest or weed control at 121.5 g/ha: low volume application, 121.5 g/H
In short: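 Protective or curative format: Septoria tritici inoculation either preceded or followed fungicide application to first-leaf Yuma wheat. Severity scored 0–100%; control expressed versus untreated.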

[2] = system: Puccinia triticina; Synonym: Puccinia recondite f. sp. tritici; experiment: Wheat brown rust (PUCCRT) disease control on wheat seedlings; assay type: in vivo; settings: for pest or weed control at 100 ppm / pest or weed control at 121.5 g/ha: Puccinia triticina; for pest or weed control at 121.5 g/ha: low volume application, 121.5 g/H
In short: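 Yuma wheat grown to first fully emerged leaf was inoculated with Puccinia triticina spore suspension either before or after fungicide treatment, held overnight at 22° C. and 100% RH in darkness, then kept at 24° C. Fungicide applied by booth sprayer to run-off (acetone/water, 110 ppm Triton X-100) or as EC by track spray.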

[3] = 24 h, High volume application, 100 ppm, 1 Day Protectant, read-out: SEPTTR 1DP disease control
[4] = 72 h, High volume application, 100 ppm, 3 Day Curative, read-out: SEPTTR 3DC disease control
[5] = 24 h, High volume application, 100 ppm, 1 Day Protectant, read-out: PUCCRT 1DP disease control
[6] = 72 h, High volume application, 100 ppm, 3 Day Curative, read-out: PUCCRT 3DC disease control
[7] = 24 h, Wheat Leaf Blotch, 1 Day Protectant, high volume application, 100 ppm, read-out: Disease Control SEPTTR 1 DP 100 ppm
[8] = 72 h, Wheat Leaf Blotch, 3 Day Curative, high volume application, 100 ppm, read-out: Disease Control SEPTTR 3 DC 100 ppm
[9] = 24 h, Wheat Brown Rust, 1 Day Protectant, high volume application, 100 ppm, read-out: Disease Control PUCCRT 1 DP 100 ppm
[10] = 72 h, Wheat Brown Rust, 3 Day Curative, high volume application, 100 ppm, read-out: Disease Control PUCCRT 3 DC 100 ppm
[11] = 24 h, Wheat Leaf Blotch, 1 Day Protectant, read-out: Disease Control SEPTTR 1 DP 121.5 g/H
[12] = 72 h, Wheat Leaf Blotch, 3 Day Curative, read-out: Disease Control SEPTTR 3 DC 121.5 g/H
[13] = 24 h, Wheat Brown Rust, 1 Day Protectant, read-out: Disease Control PUCCRT 1 DP 121.5 g/H
[14] = 72 h, Wheat Brown Rust, 3 Day Curative, read-out: Disease Control PUCCRT 3 DC 121.5 g/H
[15] = High volume application, 100 ppm, 1 Day Protectant
[16] = High volume application, 100 ppm, 3 Day Curative

Compound | pest or weed control at 100 ppm [1, 3] [%] | pest or weed control at 100 ppm [1, 4] [%] | pest or weed control at 100 ppm [2, 5] [%] | pest or weed control at 100 ppm [2, 6] [%] | other results
COc1ccnc(C(=O)N[C@H]2CCC[C@H](OC(=O)C3CCCC3)[C@@H](OC(=O)C3CCCC3)[C@H](C)OC2=O)c1OCOC(C)=O [F88] | 80 to 100 | 80 to 100 | 80 to 100 | 80 to 100 | –
COc1ccnc(C(=O)N[C@H]2CCC[C@H](OCC(C)C)[C@@H](OC)[C@H](C)OC2=O)c1O [F247] | – | – | – | – | pest or weed control at 100 ppm [1, 7]: 80 to 100%; pest or weed control at 100 ppm [1, 8]: 0 to 80%; pest or weed control at 100 ppm [2, 9]: 80 to 100%; pest or weed control at 100 ppm [2, 10]: 80 to 100%
COc1ccnc(C(=O)N[C@H]2CCC[C@H](OCC(C)C)[C@@H](OC(=O)C3CC3)[C@H](C)OC2=O)c1OCOC(=O)C(C)C [F52] | 80 to 100 | 80 to 100 | 80 to 100 | 80 to 100 | –
COc1ccnc(C(=O)N[C@H]2CCC[C@H](OC3CCCC3)[C@@H](OC(=O)C3CCCC3)[C@H](C)OC2=O)c1OCOC(C)=O [F148] | 80 to 100 | 80 to 100 | 80 to 100 | 80 to 100 | –
CCCO[C@H]1CCC[C@H](NC(=O)c2nccc(OC)c2OC(C)=O)C(=O)O[C@@H](C)[C@@H]1Oc1cccc(Cl)c1 [F286] | – | – | – | – | pest or weed control at 100 ppm [1, 7]: 80 to 100%; pest or weed control at 121.5 g/ha [1, 11]: 80 to 100%; pest or weed control at 100 ppm [1, 8]: 80 to 100%; pest or weed control at 121.5 g/ha [1, 12]: 80 to 100%; pest or weed control at 100 ppm [2, 9]: 80 to 100%; pest or weed control at 121.5 g/ha [2, 13]: 80 to 100%; pest or weed control at 100 ppm [2, 10]: 80 to 100%; pest or weed control at 121.5 g/ha [2, 14]: 0 to 80%
CCCO[C@H]1[C@H](C)OC(=O)[C@@H](NC(=O)c2nccc(OC)c2O)CCC[C@@H]1Oc1cc(C)cc(C)c1 [F281] | – | – | – | – | pest or weed control at 100 ppm [1, 7]: 0 to 80%; pest or weed control at 100 ppm [1, 8]: 0 to 80%; pest or weed control at 100 ppm [2, 9]: 80 to 100%; pest or weed control at 100 ppm [2, 10]: 0 to 80%
COc1ccnc(C(=O)N[C@H]2CCC[C@H](OC3CCCC3)[C@@H](Oc3ccccc3)[C@H](C)OC2=O)c1O [F74] | 80 to 100 | 80 to 100 | 80 to 100 | 80 to 100 | –
COc1ccnc(C(=O)N[C@H]2CCC[C@H](OCC(C)C)[C@@H](OC(=O)C3CCCC3)[C@H](C)OC2=O)c1OCOC(=O)C(C)C [F218] | 80 to 100 | 0 to 80 | 80 to 100 | 80 to 100 | –
CCCO[C@H]1CCC[C@H](NC(=O)c2nccc(OC)c2O)C(=O)O[C@@H](C)[C@@H]1Oc1ccc(F)cc1 [F262] | – | – | – | – | pest or weed control at 100 ppm [1, 7]: 80 to 100%; pest or weed control at 100 ppm [1, 8]: 80 to 100%; pest or weed control at 100 ppm [2, 9]: 0 to 80%; pest or weed control at 100 ppm [2, 10]: 80 to 100%
COc1ccnc(C(=O)N[C@H]2CCC[C@H](OCCCc3ccccc3)[C@@H](OC3CCCC3)[C@H](C)OC2=O)c1O [F224] | 0 to 80 | 0 to 80 | 80 to 100 | 0 to 80 | –
COc1ccc(O[C@H]2CCC[C@H](NC(=O)c3nccc(OC)c3O)C(=O)O[C@@H](C)[C@@H]2OC2CCCC2)cc1 [F167] | 80 to 100 | 80 to 100 | 80 to 100 | 80 to 100 | –
COc1ccnc(C(=O)N[C@H]2CCC[C@H](OC(=O)C3CCCC3)[C@@H](OCC(C)C)[C@H](C)OC2=O)c1O [F221] | 80 to 100 | 0 to 80 | 80 to 100 | 0 to 80 | –
COc1ccc(O[C@H]2[C@H](C)OC(=O)[C@@H](NC(=O)c3nccc(OC)c3OCOC(C)=O)CCC[C@@H]2Oc2ccc(OC)cc2)cc1 [F66] | 80 to 100 | 0 to 80 | 80 to 100 | 80 to 100 | –
COc1ccnc(C(=O)N[C@H]2CCC[C@H](OC(=O)C3CCCC3)[C@@H](OC3CCCC3)[C@H](C)OC2=O)c1O [F156] | 80 to 100 | 80 to 100 | 80 to 100 | 80 to 100 | –
COc1ccnc(C(=O)N[C@H]2CCC[C@H](OCCCC(F)(F)F)[C@@H](OCCCC(F)(F)F)[C@H](C)OC2=O)c1OCOC(=O)C(C)C [F100] | 80 to 100 | 80 to 100 | 80 to 100 | 80 to 100 | –
COc1ccc(O[C@H]2[C@H](C)OC(=O)[C@@H](NC(=O)c3nccc(OC)c3OCOC(=O)C(C)C)CCC[C@@H]2Oc2ccc(OC)cc2)cc1 [F67] | 80 to 100 | 0 to 80 | 80 to 100 | 80 to 100 | –
COc1ccnc(C(=O)N[C@H]2CCC[C@H](OC3CCCC3)[C@@H](OCC(C)C)[C@H](C)OC2=O)c1OCOC(C)=O [F122] | 80 to 100 | 80 to 100 | 80 to 100 | 80 to 100 | –
C=C(C)c1ccc(O[C@H]2[C@H](C)OC(=O)[C@@H](NC(=O)c3nccc(OC)c3OC(C)=O)CCC[C@@H]2OCCC)cc1 [F289] | – | – | – | – | pest or weed control at 100 ppm [1, 7]: 80 to 100%; pest or weed control at 121.5 g/ha [1, 11]: 80 to 100%; pest or weed control at 100 ppm [1, 8]: 80 to 100%; pest or weed control at 121.5 g/ha [1, 12]: 80 to 100%; pest or weed control at 100 ppm [2, 9]: 80 to 100%; pest or weed control at 121.5 g/ha [2, 13]: 80 to 100%; pest or weed control at 100 ppm [2, 10]: 80 to 100%; pest or weed control at 121.5 g/ha [2, 14]: 80 to 100%
COc1ccnc(C(=O)N[C@H]2CCC[C@H](OCC(C)C)[C@@H](OC(=O)C3CCCC3)[C@H](C)OC2=O)c1OCOC(C)=O [F150] | 80 to 100 | 80 to 100 | 80 to 100 | 80 to 100 | –
COc1ccnc(C(=O)N[C@H]2CCC[C@H](Oc3ccccc3)[C@@H](OCC(C)C)[C@H](C)OC2=O)c1O [F27] | 80 to 100 | 80 to 100 | 80 to 100 | 80 to 100 | –
COc1ccnc(C(=O)N[C@H]2CCC[C@H](OCC(C)C)[C@@H](OCCCC(F)(F)F)[C@H](C)OC2=O)c1OC(C)=O [F216] | 80 to 100 | 80 to 100 | 80 to 100 | 80 to 100 | –
CCCCCO[C@H]1[C@H](C)OC(=O)[C@@H](NC(=O)c2nccc(CC)c2O)CCC[C@@H]1OCC(C)C [F70] | 0 to 80 | 0 to 80 | 0 to 80 | 0 to 80 | –
COc1ccnc(C(=O)N[C@H]2CCC[C@H](OCCCC(F)(F)F)[C@@H](OC3CCCC3)[C@H](C)OC2=O)c1O [F168] | 80 to 100 | 80 to 100 | 80 to 100 | 80 to 100 | –
COc1ccnc(C(=O)N[C@H]2CCC[C@H](OCCCc3ccccc3)[C@@H](Oc3ccccc3)[C@H](C)OC2=O)c1O [F128] | 80 to 100 | < 0 | 80 to 100 | 0 to 80 | –
[2-[[(3S,7S,8S,9S)-7-(cyclopentoxy)-9-methyl-2-oxo-8-propoxy-oxonan-3-yl]carbamoyl]-4-methoxy-3-pyridyl]3-methoxypropanoate [F19] | – | – | – | – | SEPTTR 1DP disease control [1, 15]: A (80-100); SEPTTR 3DC disease control [1, 16]: A (80-100); PUCCRT 1DP disease control [2, 15]: A (80-100); PUCCRT 3DC disease control [2, 16]: A (80-100)
